Test results taken from patent US9827312B2, “Method for carrying therapeutic substances into cells” (MAGFORCE AG, priority 2005, dated 2017).

Experiments:
Settings in all cases: procedure of example 2
[1] = tested on: colon carcinoma cell line WiDr; assay: Increase in the activity of cytostatics with nanoparticles (Table 1), WiDr; assay type: cell-based, human
Experimental: (§1) The experiments in vitro were carried out with the cell lines BT20 (breast carcinoma) and WiDr (colon carcinoma). The tumor cells were taken from tumor tissue of a patient and cultivated as described in DE 199 12 798 C1. 2×10^6 cells, respectively, were prepared in a 75 cm^3 cell culture bottle with 25 ml of cell culture medium (RPMI+10% FBS+1.2 ml of pyruvate for WiDr cells, or respectively BME+10% FBS+pyruvate+5 ml of non-essential amino acids+5 ml glutamine for BT20 cells) for testing the efficacy of the cefamandole/nanoparticle mixture. 136 μl of magnetic fluid MFL AS M01 (iron oxide nanoparticle coated with polycondensed N-(2-aminoethyl)-3-(trimethoxysilyl)propylamine, manufacturer: MagForce Nanotechnologies GmbH, Berlin, Germany) (cFe=2 mol/l) and 390 μl of cefamandole solution (stock solution 1 mg/ml in 0.9% NaCl) were added to said cell suspension.
(§2) Corresponding to the experiment procedure according to example 2, the following […] were tested in vitro with the active ingredients listed in table 1: a) glioblastoma human cell line RUSIRS 1; b) breast carcinoma cell lines BT20; c) colon carcinoma cell line WiDR; d) bronchial carcinoma cells NSCLC, e) rectal carcinoma cells and f) prostate carcinoma cell line DU 145.
(§3) In all cases, an increased activity of the cytostatic could be observed. The increase in activity is indicated in parentheses after the respective cytostatic, wherein (+) means an increase of about 5% to 80% and (++) means an increase of 80% to 500%.

[2] = tested on: rectal carcinoma cells; assay: Increase in the activity of cytostatics with nanoparticles (Table 1), rectal carcinoma; assay type: cell-based
Experimental: as §1, §2, §3

[3] = tested on: bronchial carcinoma cells NSCLC; assay: Increase in the activity of cytostatics with nanoparticles (Table 1), NSCLC; assay type: cell-based
Experimental: as §1, §2, §3

[4] = tested on: glioblastoma human cell line RUSIRS1; assay: Increase in the activity of cytostatics with nanoparticles (Table 1), RUSIRS1; assay type: cell-based
Experimental: as §1, §2, §3

[5] = tested on: prostate carcinoma cell line DU 145; assay: Increase in the activity of cytostatics with nanoparticles (Table 1), DU 145; assay type: cell-based
Experimental: as §1, §2, §3

[6] = tested on: neuroglioma cell line H4; assay: Increase in the activity of cytostatics with nanoparticles (Table 1), H4; assay type: cell-based
Experimental: as §1, §2, §3

[7] = tested on: breast carcinoma cell lines BT20; assay: Increase in the activity of cytostatics with nanoparticles (Table 1), BT20; assay type: cell-based, human
Experimental: as §1, §2, §3

SMILES | increase in the activity of cytostatics [1] | increase in the activity of cytostatics [2] | increase in the activity of cytostatics [3] | increase in the activity of cytostatics [4] | increase in the activity of cytostatics [5] | increase in the activity of cytostatics [6] | increase in the activity of cytostatics [7]
N.N.[Cl][Pt][Cl] [cisplatin] | (+) ((+) means an increase of about 5% to 80%) | (+) ((+) means an increase of about 5% to 80%) | (++) ((++) means an increase of 80% to 500%) | (+) ((+) means an increase of about 5% to 80%) | (+) ((+) means an increase of about 5% to 80%) | (++) ((++) means an increase of 80% to 500%) | (+) ((+) means an increase of about 5% to 80%)
Nc1nc(O)c2ncn(COC(CO)CO)c2n1 [ganciclovir] | (+) ((+) means an increase of about 5% to 80%) | (+) ((+) means an increase of about 5% to 80%) | (+) ((+) means an increase of about 5% to 80%) | (++) ((++) means an increase of 80% to 500%) | (+) ((+) means an increase of about 5% to 80%) | (+) ((+) means an increase of about 5% to 80%) | (+) ((+) means an increase of about 5% to 80%)
Nc1ccn([C@@H]2O[C@H](CO)[C@@H](O)C2(F)F)c(=O)n1 [gemcitabine] | (+) ((+) means an increase of about 5% to 80%) | (+) ((+) means an increase of about 5% to 80%) | (++) ((++) means an increase of 80% to 500%) | (+) ((+) means an increase of about 5% to 80%) | (+) ((+) means an increase of about 5% to 80%) | (+) ((+) means an increase of about 5% to 80%) | (+) ((+) means an increase of about 5% to 80%)
CC(C)Cc1ccc(C(C)C(=O)O)cc1 (centres unmarked) [ibuprofen] | (++) ((++) means an increase of 80% to 500%) | (+) ((+) means an increase of about 5% to 80%) | (+) ((+) means an increase of about 5% to 80%) | (+) ((+) means an increase of about 5% to 80%) | (+) ((+) means an increase of about 5% to 80%) | (+) ((+) means an increase of about 5% to 80%) | (+) ((+) means an increase of about 5% to 80%)
CC(=O)[C@]1(O)Cc2c(O)c3c(c(O)c2[C@@H](O[C@H]2C[C@H](N)[C@H](O)[C@H](C)O2)C1)C(=O)c1ccccc1C3=O [idarubicin] | (+) ((+) means an increase of about 5% to 80%) | (+) ((+) means an increase of about 5% to 80%) | (++) ((++) means an increase of 80% to 500%) | (++) ((++) means an increase of 80% to 500%) | (+) ((+) means an increase of about 5% to 80%) | (+) ((+) means an increase of about 5% to 80%) | (+) ((+) means an increase of about 5% to 80%)
Cc1ccc(NC(=O)c2ccc(CN3CCN(C)CC3)cc2)cc1Nc1nccc(-c2cccnc2)n1 [imatinib] | (++) ((++) means an increase of 80% to 500%) | (+) ((+) means an increase of about 5% to 80%) | (+) ((+) means an increase of about 5% to 80%) | (+) ((+) means an increase of about 5% to 80%) | (+) ((+) means an increase of about 5% to 80%) | (+) ((+) means an increase of about 5% to 80%) | (+) ((+) means an increase of about 5% to 80%)
Cc1oncc1C(=O)Nc1ccc(C(F)(F)F)cc1 [leflunomide] | (+) ((+) means an increase of about 5% to 80%) | (+) ((+) means an increase of about 5% to 80%) | (+) ((+) means an increase of about 5% to 80%) | (+) ((+) means an increase of about 5% to 80%) | (+) ((+) means an increase of about 5% to 80%) | (+) ((+) means an increase of about 5% to 80%) | (+) ((+) means an increase of about 5% to 80%)
N#Cc1ccc(C(c2ccc(C#N)cc2)n2cncn2)cc1 [letrozole] | (+) ((+) means an increase of about 5% to 80%) | (+) ((+) means an increase of about 5% to 80%) | (+) ((+) means an increase of about 5% to 80%) | (+) ((+) means an increase of about 5% to 80%) | (+) ((+) means an increase of about 5% to 80%) | (+) ((+) means an increase of about 5% to 80%) | (+) ((+) means an increase of about 5% to 80%)
Cc1onc(-c2ccccc2)c1C(=O)N[C@@H]1C(=O)N2[C@@H]1SC(C)(C)[C@@H]2C(=O)O [oxacillin] | (++) ((++) means an increase of 80% to 500%) | (+) ((+) means an increase of about 5% to 80%) | (+) ((+) means an increase of about 5% to 80%) | (+) ((+) means an increase of about 5% to 80%) | (++) ((++) means an increase of 80% to 500%) | (+) ((+) means an increase of about 5% to 80%) | (+) ((+) means an increase of about 5% to 80%)
CC(=O)O[C@H]1C(=O)[C@@]2(C)[C@H]([C@H](OC(=O)c3ccccc3)[C@]3(O)C[C@H](OC(=O)[C@H](O)[C@@H](NC(=O)c4ccccc4)c4ccccc4)C(C)=C1C3(C)C)[C@]1(OC(C)=O)CO[C@@H]1C[C@@H]2O [paclitaxel] | (+) ((+) means an increase of about 5% to 80%) | (+) ((+) means an increase of about 5% to 80%) | (+) ((+) means an increase of about 5% to 80%) | (+) ((+) means an increase of about 5% to 80%) | (+) ((+) means an increase of about 5% to 80%) | (+) ((+) means an increase of about 5% to 80%) | (++) ((++) means an increase of 80% to 500%)
CO[C@H]1C[C@@H]2CC[C@@H](C)[C@@](O)(O2)C(=O)C(=O)N2CCCC[C@H]2C(=O)O[C@H]([C@H](C)C[C@@H]2CC[C@@H](O)[C@H](OC)C2)CC(=O)[C@H](C)/C=C(\C)[C@@H](O)[C@@H](OC)C(=O)[C@H](C)C[C@H](C)/C=C/C=C/C=C/1C [rapamycin] | (+) ((+) means an increase of about 5% to 80%) | (++) ((++) means an increase of 80% to 500%) | (+) ((+) means an increase of about 5% to 80%) | (+) ((+) means an increase of about 5% to 80%) | (+) ((+) means an increase of about 5% to 80%) | (+) ((+) means an increase of about 5% to 80%) | (++) ((++) means an increase of 80% to 500%)
